Biological target: T1, KPC-2 (Klebsiella pneumoniae, UniProt Q9F663)
T1 construct: recombinant KPC-2 from pET28a (bla KPC-2 gene, NCBI NG_049253.1), expressed in E. coli BL21(DE3), Ni column purified
Assay: nitrocefin hydrolysis assay with purified KPC-2, absorbance at […] nm
Assay type: biochemical

T1 sequence (Q9F663 25-293 limits assumed): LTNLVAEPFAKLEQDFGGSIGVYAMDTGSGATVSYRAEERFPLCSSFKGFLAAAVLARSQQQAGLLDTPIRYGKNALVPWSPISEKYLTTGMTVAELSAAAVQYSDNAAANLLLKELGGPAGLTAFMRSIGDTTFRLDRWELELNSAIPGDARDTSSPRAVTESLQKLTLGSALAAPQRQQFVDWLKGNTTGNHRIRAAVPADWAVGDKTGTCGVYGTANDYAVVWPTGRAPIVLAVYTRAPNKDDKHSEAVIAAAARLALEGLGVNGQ

SMILES: C[C@H]1[C@H](C)CC[C@]2(C(=O)O)CC[C@]3(C)C(=CC[C@@H]4[C@@]5(C)C[C@@H](O)[C@H](O)C(C)(C)[C@@H]5CC[C@]43C)[C@H]12 [CA, corosolic acid]
- IC50: 4.97 µM

From article PMC7363806, “Characterization of Corosolic Acid as a KPC-2 Inhibitor That Increases the Susceptibility of KPC-2-Positive Bacteria to Carbapenems” (Frontiers in Pharmacology, 2020)
